According to patent publication US20250152719A1, “FUSED IMIDE DERIVATIVE” (Chia Tai Tianqing Pharmaceutical Group Co., Ltd., priority 2021, published 2025):

Key:
Type in all cases: cell-based
TMD8-BTK(C481S) cells = experiment: Inhibitory activity on TMD8-BTK(C481S) cell proliferation (CCK-8); conditions: 72 h incubation
Experimental: (§1) TMD8-BTK(C481S) cells in a good growth state were collected and added to a centrifuge tube, adjusted to a cell density of 8×10^4 cells/mL, and seeded in a 96-well plate (100 μL/well). The cells were incubated overnight in a cell incubator. Compounds were added using a nanoliter pipettor such that the final concentrations of the compounds were 5000 nM-0.31 nM; the addition was performed in duplicate, and meanwhile, a control was set. After another 72 h of incubation in the cell incubator, 10 μL of CCK-8 (CK04, PP799) was added. After 4 h of incubation in the cell incubator, absorbance values were detected at 450 nm using an Envision microplate reader, the four-parameter analysis was performed, the dose-response curves were fit, and IC50 was calculated.

BTK = BTK (Homo sapiens (Human), UniProt Q06187); experiment: BTK degradation in OCI-LY10 cells (Total-BTK HTRF kit); conditions: 24 (or 6) h incubation; for Dmax: OCI-Ly10, OCI-LY10 cells; for Dmax / BTK degradation in OCI-LY10 cells Dmax: maximum degradation rate; for BTK degradation in OCI-LY10 cells Dmax / DC50: OCI-LY10 cells; for DC50: DC50 = concentration when degradation rate reaches 50%, read-out: OCI-LY10 cell BTK degradation DC50
Experimental: The detection was carried out using the Total-BTK Kits (cisbio, 63ADK064PEH), and 4× Supplemented Lysis buffer was prepared using the Blocking reagent stock solution (100×) and Lysis buffer stock solution (4×). Premixed antibody solutions were prepared using the Detection buffer, Total-BTK d2 antibody, and Total-BTK Eu Cryptate antibody.
OCI-LY10 cells in a good growth state were collected and added to a centrifuge tube, adjusted to a cell density of 4.17×10^6 cells/mL, and seeded in a 384-well plate (12 μL/well). The cells were incubated overnight in a cell incubator. Compounds were added using a nanoliter pipettor such that the final concentrations of the compounds were 100 nM-0.098 nM; the addition was performed in duplicate, and meanwhile, a control was set. After another 24 (or 6) h of incubation in the cell incubator, the 4× Supplemented Lysis buffer was added at 4 μL/well to lyse the cells. After the cells were shaken for 40 min at room temperature, the Premixed antibody solutions were added at 4 μL/well, and the cells were left to stand overnight at room temperature. Fluorescence values of the cells were detected at 665 nm/620 nm using an Envision microplate reader, the four-parameter analysis was performed, the dose-response curves were fit, and DC50 (the concentration of the drug when the degradation rate reaches 50%) and Dmax (the maximum degradation rate) were calculated.

OCI-LY10 cells = experiment: Inhibitory activity on OCI-LY10 cell proliferation (CCK-8); conditions: Homo sapiens, OCI-Ly10, 72 h incubation
Experimental: as §1, with “OCI-LY10 cells” for “TMD8-BTK(C481S) cells”, “of 1×10^5” for “of 8×10^4”, “After 2.5” for “After 4”

BTK, sequence (Q06187 whole entry): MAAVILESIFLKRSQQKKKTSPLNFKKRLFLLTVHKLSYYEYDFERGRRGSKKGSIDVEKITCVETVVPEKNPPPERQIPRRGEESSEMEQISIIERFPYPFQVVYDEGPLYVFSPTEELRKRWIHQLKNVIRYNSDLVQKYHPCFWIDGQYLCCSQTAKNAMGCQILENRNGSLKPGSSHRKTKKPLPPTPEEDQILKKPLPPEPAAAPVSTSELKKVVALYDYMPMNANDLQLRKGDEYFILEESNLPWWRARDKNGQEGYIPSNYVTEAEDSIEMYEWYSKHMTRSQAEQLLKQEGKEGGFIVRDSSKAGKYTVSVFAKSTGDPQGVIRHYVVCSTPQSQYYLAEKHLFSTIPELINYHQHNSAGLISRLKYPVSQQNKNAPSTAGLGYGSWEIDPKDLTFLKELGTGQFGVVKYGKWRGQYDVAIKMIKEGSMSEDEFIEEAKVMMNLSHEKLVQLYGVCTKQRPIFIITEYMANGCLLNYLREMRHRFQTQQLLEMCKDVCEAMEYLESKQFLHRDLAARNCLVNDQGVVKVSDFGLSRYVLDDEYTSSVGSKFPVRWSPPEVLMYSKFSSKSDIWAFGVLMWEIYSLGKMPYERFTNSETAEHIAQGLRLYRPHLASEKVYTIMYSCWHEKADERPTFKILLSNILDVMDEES

Compound | Dmax (BTK) [%] | BTK degradation in OCI-LY10 cells Dmax (BTK) [%] | IC50 (TMD8-BTK(C481S) cells; 72 h) [nM] | also measured
CN1CCN([C@@H]2CCCN(c3cnc(C(N)=O)c(Nc4ccc(C5CC6CCCC(C5)N6C5Cc6ccc7c(C8CCC(=O)NC8=O)noc7c6C5)cc4)n3)C2)C1=O (stereo partly drawn) [Compound 79] | > 90 |  | 12 | IC50 (OCI-LY10 cells): < 0.31 nM
NC(=O)c1ncc(N2CCCCC2)nc1Nc1ccc(C2CCN(C[C@H]3C[C@@H](n4ccc5c6c(C7CCC(=O)NC7=O)noc6ccc54)C3)CC2)cc1 (stereo partly drawn) [Compound 99-1] |  | >90 |  | 
CN1CCN([C@@H]2CCCN(c3cnc(C(N)=O)c(Nc4ccc(C5C[C@@H]6CN(CC7Cc8ccc9c(C%10CCC(=O)NC%10=O)noc9c8C7)C[C@@H]6C5)cc4)n3)C2)C1=O (stereo partly drawn) [Compound 48] | > 90 |  | 5.7 | 
CN1CCN([C@@H]2CCCN(c3cnc(C(N)=O)c(Nc4ccc5c(c4)OC[C@H]4CN(CC6Cc7ccc8c(C9CCC(=O)NC9=O)noc8c7C6)CCN54)n3)C2)C1=O (stereo partly drawn) [Compound 86] | > 90 |  |  | 
CN1CCN([C@@H]2CCCN(c3cnc(C(N)=O)c(Nc4ccc5c(c4)CN(CC4Cc6ccc7c(C8CCC(=O)NC8=O)noc7c6C4)C5)n3)C2)C1=O (stereo partly drawn) [Compound 45] |  | >90 |  | 
CN1CCN([C@@H]2CCCN(c3cnc(C(N)=O)c(Nc4ccc(C5CCN([C@H]6CC[C@H](n7ccc8c9c(C%10CCC(=O)NC%10=O)noc9ccc87)CC6)CC5)cc4)n3)C2)C1=O (stereo partly drawn) [Compound 102-2] |  | 97.11 |  | DC50 (BTK): < 0.098 nM
CN1CCN([C@@H]2CCCN(c3cnc(C(N)=O)c(Nc4ccc(C5CCN(C[C@H]6CCN(c7ccc8onc(C9CCC(=O)NC9=O)c8c7)C6)CC5)cc4)n3)C2)C1=O (stereo partly drawn) [Compound 4] |  |  | 27 | 
CN1CCN([C@@H]2CCCN(c3cnc(C(N)=O)c(Nc4ccc(C5CCN(C[C@H]6C[C@H](n7ccc8c9c(C%10CCC(=O)NC%10=O)noc9ccc87)C6)CC5)cc4)n3)C2)C1=O (stereo partly drawn) [Compound 98-1] |  | >90 |  | 
NC(=O)c1ncc(N2CCCCC2)nc1Nc1ccc(C2CCN([C@H]3CC[C@H](n4ccc5c6c(C7CCC(=O)NC7=O)noc6ccc54)CC3)CC2)cc1 (stereo partly drawn) [Compound 103-2] |  | >90 |  | 
NC(=O)c1ncc(N2CCCCC2)nc1Nc1ccc(N2CCC(N3CCc4c(ccc5c(C6CCC(=O)NC6=O)noc45)C3)CC2)cc1 (stereo not drawn) [Compound 61] |  |  | 13 | 
CN1CCN([C@@H]2CCCN(c3cnc(C(N)=O)c(Nc4ccc(C5C[C@@H]6CN(CC7Cc8ccc9c(C%10CCC(=O)NC%10=O)noc9c8C7)C[C@@H]6C5)cc4)n3)C2)C1=O (stereo partly drawn) [Compound 49] |  | >90 |  | IC50 (TMD8-BTK(C481S) cells): 6.8 nM
NC(=O)c1ncc(N2CCCCC2)nc1Nc1ccc(N2CCC(N3CCc4ccc5c(C6CCC(=O)NC6=O)noc5c4C3)CC2)cc1 (stereo not drawn) [Compound 60] |  |  | 9.4 | 
NC(=O)c1ncc(N2CCCCC2)nc1Nc1ccc(C2CCC(CN3CCc4ccc5c(C6CCC(=O)NC6=O)noc5c4CC3)CC2)cc1 (stereo not drawn) [Compound 74] |  |  |  | IC50 (TMD8-BTK(C481S) cells): 23 nM
NC(=O)c1ncc(N2CCCCC2)nc1Nc1ccc(C2CCC(N3CCc4ccc5c(C6CCC(=O)NC6=O)noc5c4CC3)CC2)cc1 (stereo not drawn) [Compound 67] |  |  |  | IC50 (TMD8-BTK(C481S) cells): 32 nM
NC(=O)c1ncc(N2CCCCC2)nc1Nc1ccc(N2CCC(N3Cc4ccc5c(C6CCC(=O)NC6=O)noc5c4C3)CC2)cc1 (stereo not drawn) [Compound 31] | > 90 |  |  | 
CN1CCN([C@@H]2CCCN(c3cnc(C(N)=O)c(Nc4ccc5c(c4)CCC4(CCN(CC6Cc7ccc8c(C9CCC(=O)NC9=O)noc8c7C6)CC4)O5)n3)C2)C1=O (stereo partly drawn) [Compound 78] |  | >90 |  | 
NC(=O)c1ncc(N2CCCCC2)nc1Nc1ccc(C2CCN(C3Cc4ccc5c(C6CCC(=O)NC6=O)noc5c4C3)CC2)cc1 (stereo not drawn) [Compound 70] |  |  |  | IC50 (TMD8-BTK(C481S) cells): 15 nM
NC(=O)c1ncc(N2CCCCC2)nc1Nc1ccc(C2CCN(CC3Cc4ccc5c(C6CCC(=O)NC6=O)noc5c4C3)CC2)cc1 (stereo not drawn) [Compound 76] | > 90 |  |  | IC50 (TMD8-BTK(C481S) cells): 11 nM
NC(=O)c1ncc(N2CCCCC2)nc1Nc1ccc(C2CCN(CC3Cc4ccc5c(C6CCC(=O)NC6=O)noc5c4C3)CC2)cc1 (stereo not drawn) [Compound 75] |  |  | 9.8 | 
CN1CCN([C@@H]2CCCN(c3cnc(C(N)=O)c(Nc4ccc(C5CCN([C@H]6CC[C@@H](n7ccc8c9c(C%10CCC(=O)NC%10=O)noc9ccc87)CC6)CC5)cc4)n3)C2)C1=O (stereo partly drawn) [Compound 102-1] |  | >90 |  | 

The next lines start with results.

Dmax (BTK) [%] | BTK degradation in OCI-LY10 cells Dmax (BTK) [%] | Compound | IC50 (TMD8-BTK(C481S) cells; 72 h) [nM] | also measured
> 90 |  | CN1CCN([C@@H]2CCCN(c3cnc(C(N)=O)c(Nc4ccc(C5CCC6(CC5)CC(N5CCc7c(ccc8c(C9CCC(=O)NC9=O)noc78)C5)C6)cc4)n3)C2)C1=O (stereo partly drawn) [Compound 58] | 21 | 
99 |  | CN1CCN([C@@H]2CCCN(c3cnc(C(N)=O)c(Nc4ccc(C5CCN(C[C@H]6CCN(c7cc8onc(C9CCC(=O)NC9=O)c8cc7F)C6)CC5)cc4)n3)C2)C1=O (stereo partly drawn) [Compound 3] |  | DC50 (BTK): < 0.098 nM; IC50 (OCI-LY10 cells): < 0.31 nM
> 90 |  | CN1CCN(C2CCCN(c3cnc(C(N)=O)c(Nc4ccc(C5CCC6(CC5)CN(C5Cc7ccc8c(C9CCC(=O)NC9=O)noc8c7C5)C6)cc4)n3)C2)C1=O (stereo not drawn) [Compound 54] | 9.7 | 
99 |  | CN1CCN([C@@H]2CCCN(c3cnc(C(N)=O)c(Nc4ccc(C5CCN(C[C@H]6CCN(c7ccc8c(C9CCC(=O)NC9=O)noc8c7)C6)CC5)cc4)n3)C2)C1=O (stereo partly drawn) [Compound 1] | 35 | DC50 (BTK): < 0.098 nM; IC50 (OCI-LY10 cells): < 0.31 nM
 | >90 | CN1CCN([C@@H]2CCCN(c3cnc(C(N)=O)c(Nc4ccc(C5CCC6(CC5)CN(CC5Cc7ccc8c(C9CCC(=O)NC9=O)noc8c7C5)C6)cc4)n3)C2)C1=O (stereo partly drawn) [Compound 52] | 3.7 | 
> 90 |  | CN1CCN([C@@H]2CCCN(c3cnc(C(N)=O)c(Nc4ccc(C5CCN([C@H]6C[C@@H](n7ccc8c9c(C%10CCC(=O)NC%10=O)noc9ccc87)C6)CC5)cc4)n3)C2)C1=O (stereo partly drawn) [Compound 100] | 0.57 | IC50 (OCI-LY10 cells): < 0.31 nM
99 |  | CN1CCN([C@@H]2CCCN(c3cnc(C(N)=O)c(Nc4ccc(C5CCN(C[C@H]6CCC(c7ccc8c(C9CCC(=O)NC9=O)noc8c7)C6)CC5)cc4)n3)C2)C1=O (stereo partly drawn) [Compound 6] | 27 | DC50 (BTK): < 0.098 nM; IC50 (OCI-LY10 cells): < 0.31 nM
> 90 |  | CN1CCN([C@@H]2CCCN(c3cnc(C(N)=O)c(Nc4ccc(C5CCC6(CC5)CC(N5CCc7ccc8c(C9CCC(=O)NC9=O)noc8c7C5)C6)cc4)n3)C2)C1=O (stereo partly drawn) [Compound 57] |  | 
> 90 |  | CN1CCN([C@@H]2CCCN(c3cnc(C(N)=O)c(Nc4ccc(C5CCN(C6Cc7ccc8c(C9CCC(=O)NC9=O)noc8c7C6)CC5)cc4)n3)C2)C1=O (stereo partly drawn) [Compound 87] |  | IC50 (TMD8-BTK(C481S) cells): 11 nM; IC50 (OCI-LY10 cells): < 0.31 nM
 | >90 | CN1CCN([C@@H]2CCCN(c3cnc(C(N)=O)c(Nc4ccc(C5CCN(C6Cc7ccc8c(C9CCC(=O)NC9=O)noc8c7C6)CC5)cc4)n3)C2)C1=O (stereo partly drawn) [Compound 88] |  | IC50 (TMD8-BTK(C481S) cells): 29 nM
 | 99 | CN1CCN([C@@H]2CCCN(c3cnc(C(N)=O)c(Nc4ccc(C5CCC6(CC5)CN(C5CN(c7ccc8c(C9CCC(=O)NC9=O)noc8c7)C5)C6)cc4)n3)C2)C1=O (stereo partly drawn) [Compound 12] |  | DC50 (BTK): 0.098 nM
 | >90 | CN1CCN([C@@H]2CCCN(c3cnc(C(N)=O)c(Nc4ccc(C5CCC6(CC5)CCN(CC5Cc7ccc8c(C9CCC(=O)NC9=O)noc8c7C5)CC6)cc4)n3)C2)C1=O (stereo partly drawn) [Compound 51] |  | IC50 (TMD8-BTK(C481S) cells): 4.7 nM
> 90 |  | CN1CCN([C@@H]2CCCN(c3cnc(C(N)=O)c(Nc4ccc(C5CCC6(CC5)CC(N5Cc7ccc8c(C9CCC(=O)NC9=O)noc8c7C5)C6)cc4)n3)C2)C1=O (stereo partly drawn) [Compound 56] | 33 | 
99 |  | CN1CCN([C@@H]2CCCN(c3cnc(C(N)=O)c(Nc4ccc(C5CCN(C[C@H]6CCN(c7cccc8c(C9CCC(=O)NC9=O)noc78)C6)CC5)cc4)n3)C2)C1=O (stereo partly drawn) [Compound 2] | 18 | DC50 (BTK): < 0.098 nM
 | >90 | CN1CCN(C2CCCN(c3cnc(C(N)=O)c(Nc4ccc(C5CCC6(CC5)CN(C5Cc7ccc8c(C9CCC(=O)NC9=O)noc8c7C5)C6)cc4)n3)C2)C1=O (stereo not drawn) [Compound 55] |  | IC50 (TMD8-BTK(C481S) cells): 6.1 nM
